Data: patent US20250145633A1, “SUBSTITUTED FURANOPYRIMIDINE COMPOUNDS AS PDE1 INHIBITORS” (Dart NeuroScience, LLC, priority 2017, published 2025)

Target: human PDE1B enzyme (Homo sapiens (Human), UniProt Q01064)
Assay: IMAP TR-FRET PDE1B enzymatic assay
Format: biochemical
Conditions: negative log of half-maximal molar inhibitory concentration, 200 nM FAM-cAMP, values given as bins; for IC50: read-out: PDE1b (pIC50) (converted)
Outline: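 Full-length GST-tagged human PDE1B (250 pg/well) in IMAP BSA buffer with 10 U/ml calmodulin and 2.5 mM CaCl2; compound pre-incubated 5 min at room temperature, then 200 nM (final) FAM-cAMP for 30 min. IMAP binding reagent/Tb added, 1 h; TR-FRET 520/490 ratio read. IC50 from sigmoidal dose-response fit.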

SMILES	IC50	PDE1b (pIC50)
C#CCNC(=O)c1c(C)oc2ncnc(NC3(C)CC3)c12 [Example 210, 6-Methyl-4-[(1-methylcyclopropyl)amino]-N-(prop-2-yn-1-yl)furo[2,3-d]pyrimidine-5-carboxamide]	10 to 100 nM	
CCCNC(=O)c1c(C)oc2ncnc(NC3(C)CC3)c12 [Example 211, 6-Methyl-4-[(1-methylcyclopropyl)amino]-N-propylfuro[2,3-d]pyrimidine-5-carboxamide]	10 to 100 nM	
Cc1oc2ncnc(NC3(C)CC3)c2c1C(=O)NC1CCC1 [Example 212, N-Cyclobutyl-6-methyl-4-[(1-methylcyclopropyl)amino]furo[2,3-d]pyrimidine-5-carboxamide]	10 to 100 nM	
CCCCNC(=O)c1c(C)oc2ncnc(NC3(C)CC3)c12 [Example 213, N-Butyl-6-methyl-4-[(1-methylcyclopropyl)amino]furo[2,3-d]pyrimidine-5-carboxamide]	10 to 100 nM	
Cc1oc2ncnc(NC3(C)CC3)c2c1C(=O)N(C)Cc1ccccn1 [Example 214, N,6-Dimethyl-4-[(1-methylcyclopropyl)amino]-N-(pyridin-2-ylmethyl)furo[2,3-d]pyrimidine-5-carboxamide]	100 to 1000 nM	
Cc1oc2ncnc(NC3(C)CC3)c2c1C(=O)N(C)Cc1cccnc1 [Example 215, N,6-Dimethyl-4-[(1-methylcyclopropyl)amino]-N-(pyridin-3-ylmethyl)furo[2,3-d]pyrimidine-5-carboxamide]	100 to 1000 nM	
Cc1oc2ncnc(NC3(C)CC3)c2c1C(=O)NCc1cccc(F)c1 [Example 217, N-[(3-Fluorophenyl)methyl]-6-methyl-4-[(1-methylcyclopropyl)amino]furo[2,3-d]pyrimidine-5-carboxamide]		>8
Cc1oc2ncnc(NC3(C)CC3)c2c1C(=O)NCc1ccccc1F [Example 218, N-[(2-Fluorophenyl)methyl]-6-methyl-4-[(1-methylcyclopropyl)amino]furo[2,3-d]pyrimidine-5-carboxamide]	10 to 100 nM	
Cc1oc2ncnc(NC3(C)CC3)c2c1C(=O)NCCCn1ccnc1 [Example 220, N-[3-(1H-Imidazol-1-yl)propyl]-6-methyl-4-[(1-methylcyclopropyl)amino]furo[2,3-d]pyrimidine-5-carboxamide]	10 to 100 nM	
Cc1oc2ncnc(NC3(C)CC3)c2c1C(=O)NCCc1cccs1 [Example 222, 6-Methyl-4-[(1-methylcyclopropyl)amino]-N-[2-(thiophen-2-yl)ethyl]furo[2,3-d]pyrimidine-5-carboxamide]	10 to 100 nM	
Cc1oc2ncnc(NC3(C)CC3)c2c1C(=O)N(C)Cc1ccsc1 [Example 223, N,6-Dimethyl-4-[(1-methylcyclopropyl)amino]-N-(thiophen-3-ylmethyl)furo[2,3-d]pyrimidine-5-carboxamide]	10 to 100 nM	
Cc1oc2ncnc(NC3(C)CC3)c2c1C(=O)N(C)Cc1cccs1 [Example 224, N,6-Dimethyl-4-[(1-methylcyclopropyl)amino]-N-(thiophen-2-ylmethyl)furo[2,3-d]pyrimidine-5-carboxamide]	10 to 100 nM	
Cc1oc2ncnc(NC3(C)CC3)c2c1C(=O)NCCC1CCCCC1 [Example 225, N-(2-Cyclohexylethyl)-6-methyl-4-[(1-methylcyclopropyl)amino]furo[2,3-d]pyrimidine-5-carboxamide]	10 to 100 nM	
Cc1oc2ncnc(NC3(C)CC3)c2c1C(=O)NC1CCc2ccccc21 (stereo not shown) [Example 230, N-(2,3-Dihydro-1H-inden-1-yl)-6-methyl-4-[(1-methylcyclopropyl)amino]furo[2,3-d]pyrimidine-5-carboxamide]	10 to 100 nM	
Cc1oc2ncnc(NC3(C)CC3)c2c1C(=O)N1CCc2ccccc2C1 [Example 233, 6-Methyl-N-(1-methylcyclopropyl)-5-(1,2,3,4-tetrahydroisoquinoline-2-carbonyl)furo[2,3-d]pyrimidin-4-amine]	10 to 100 nM	
Cc1ccc(CCNC(=O)c2c(C)oc3ncnc(NC4(C)CC4)c23)cc1 [Example 235, 6-Methyl-4-[(1-methylcyclopropyl)amino]-N-[2-(4-methylphenyl)ethyl]furo[2,3-d]pyrimidine-5-carboxamide]	10 to 100 nM	
Cc1ccccc1CCNC(=O)c1c(C)oc2ncnc(NC3(C)CC3)c12 [Example 236, 6-Methyl-4-[(1-methylcyclopropyl)amino]-N-[2-(2-methylphenyl)ethyl]furo[2,3-d]pyrimidine-5-carboxamide]	10 to 100 nM	
Cc1ccc(CNC(=O)c2c(C)oc3ncnc(NC4(C)CC4)c23)cc1C [Example 237, N-[(3,4-Dimethylphenyl)methyl]-6-methyl-4-[(1-methylcyclopropyl)amino]furo[2,3-d]pyrimidine-5-carboxamide]		>8
Cc1cccc(CNC(=O)c2c(C)oc3ncnc(NC4(C)CC4)c23)c1C [Example 238, N-[(2,3-Dimethylphenyl)methyl]-6-methyl-4-[(1-methylcyclopropyl)amino]furo[2,3-d]pyrimidine-5-carboxamide]		>8
Cc1oc2ncnc(NC3(C)CC3)c2c1C(=O)NC(C)(C)c1ccccc1 [Example 239, 6-Methyl-4-[(1-methylcyclopropyl)amino]-N-(2-phenylpropan-2-yl)furo[2,3-d]pyrimidine-5-carboxamide]	10 to 100 nM	
COc1ccc(NC(=O)c2c(C)oc3ncnc(NC4(C)CC4)c23)c(C)c1 [Example 244, N-(4-Methoxy-2-methylphenyl)-6-methyl-4-[(1-methylcyclopropyl)amino]furo[2,3-d]pyrimidine-5-carboxamide]	10 to 100 nM	
COc1cccc(CNC(=O)c2c(C)oc3ncnc(NC4(C)CC4)c23)c1 [Example 246, N-[(3-Methoxyphenyl)methyl]-6-methyl-4-[(1-methylcyclopropyl)amino]furo[2,3-d]pyrimidine-5-carboxamide]	10 to 100 nM	
Cc1oc2ncnc(NC3(C)CC3)c2c1C(=O)N(C)Cc1ccc(F)cc1 [Example 248, N-[(4-Fluorophenyl)methyl]-N,6-dimethyl-4-[(1-methylcyclopropyl)amino]furo[2,3-d]pyrimidine-5-carboxamide]	10 to 100 nM	
Cc1oc2ncnc(NC3(C)CC3)c2c1C(=O)N(C)Cc1ccccc1F [Example 249, N-[(2-Fluorophenyl)methyl]-N,6-dimethyl-4-[(1-methylcyclopropyl)amino]furo[2,3-d]pyrimidine-5-carboxamide]	10 to 100 nM	
Cc1oc2ncnc(NC3(C)CC3)c2c1C(=O)N(C)Cc1cccc(F)c1 [Example 250, N-[(3-Fluorophenyl)methyl]-N,6-dimethyl-4-[(1-methylcyclopropyl)amino]furo[2,3-d]pyrimidine-5-carboxamide]	10 to 100 nM	
CCc1cc(CN(C)C(=O)c2c(C)oc3ncnc(NC4(C)CC4)c23)on1 [Example 251, N-[(3-Ethyl-1,2-oxazol-5-yl)methyl]-N,6-dimethyl-4-[(1-methylcyclopropyl)amino]furo[2,3-d]pyrimidine-5-carboxamide]	10 to 100 nM	
COc1cc(NC(=O)c2c(C)oc3ncnc(NC4(C)CC4)c23)ccc1F [Example 253, N-(4-Fluoro-3-methoxyphenyl)-6-methyl-4-[(1-methylcyclopropyl)amino]furo[2,3-d]pyrimidine-5-carboxamide]	10 to 100 nM	
Cc1oc2ncnc(NC3(C)CC3)c2c1C(=O)NCc1ccccc1Cl [Example 254, N-[(2-Chlorophenyl)methyl]-6-methyl-4-[(1-methylcyclopropyl)amino]furo[2,3-d]pyrimidine-5-carboxamide]	10 to 100 nM	
